Measured values reported in US10259810B2, “N-sulfonylated pyrazolo[3,4-b]pyridin-6-carboxamides and method of use” (AbbVie S.à.r.l., priority 2015, dated 2019).
pEC50: −log10 of the molar value. Read-outs that look alike come from different tables or passages of the source.

What was measured:
Type in all cases: cell-based
CFTR ΔF508 = biological target: T1, CFTR ΔF508 (Homo sapiens, UniProt P13569, DEL508-508); assay: Chronic TECC assay, primary bronchial epithelial cells of CF patients homozygous for CFTR ΔF508 (corrector, co-corrector and potentiator); conditions: chronic TECC; for % Activity at 1 μM (Ieq*) / % Activity at 1 μM (AUC**): test compound at 1 μM
T1 construct: bronchial epithelial cells isolated from CF patients homozygous for the CFTR ΔF508 mutation; McGill University; Asterand; University of North Carolina hAEC-CF; host or cells: primary human bronchial epithelial cells from CF patients homozygous for ΔF508, differentiated at air-liquid interface
Experimental: Primary Bronchial Epithelial Cells Protocol
The TECC (Tranepithelial Clamp Circuit, EP-design) assay measures the functionality of the cystic fibrosis Transmembrane Conductance regulator (CFTR) by measuring the short circuit current (Isc) generated over the basolateral and apical membrane of lung epithelial cells. In TECC the transepithelial potential PD and transepithelial resistance (Rt) are measured in an open circuit and transformed to Ieq using Ohm's law. 24 Wells can be measured simultaneously allowing a higher throughput compared to Ussing chambers.
For this purpose, bronchial epithelial cells isolated from CF patients homozygous for the CFTR ΔF508 mutation (hAEC-CF, Epithelix, Geneva, Switzerland; McGill University, Montreal, Qc; Asterand, Detroit, Mich.; University of North Carolina, Chapel Hill, N.C.) are plated on type IV collagen-coated Transwell® supports (Costar).
For electrophysiological recording of the “chronic” experiments, the human airway epithelia are mounted in the TECC heating plate for electrophysiological measurement and kept at 37° C. The epithelia are bathed in a NaCl-Ringer solution (120 mM NaCl, 25 mM NaHCO3, 1.2 mM CaCl2, 1.2 mM MgCl2, 0.8 mM KH2PO4, 0.8 mM K2HPO4, pH 7.4, 5 mM glucose) on both the basolateral and apical sides. Test compounds (corrector, co-corrector, 4-[(2R,4R)-4-({[1-(2,2-difluoro-1,3-benzodioxol-5-yl)cyclopropyl]carbonyl}amino)-7-(difluoromethoxy)-3,4-dihydro-2H-chromen-2-yl]benzoic acid, and potentiator, N-(3-carbamoyl-5,5,7,7-tetramethyl-4,7-dihydro-5H-thieno[2,3-c]pyran-2-yl)-1H-pyrazole-5-carboxamide), are re-added to the recording solution prior to measurement. […] Apical amiloride is used to inhibit the endogenous ENaC currents while forskolin is applied on both apical and basolateral side to stimulate CFTR. Measurements are done during a 20 minute timeframe with recordings every 2 minutes. The increase in Ieq is used as a measure for the increased CFTR activity, EC50 values can be generated by measuring impact of different concentrations of compound on Ieq on primary cells, for this purpose each transwell is treated with a different compound concentration. […] Raw data were normalized to percentage activity values using the equation: 100×(Sample−Negative control)/(Positive control−Negative Control).

ΔF508-CFTR [1] = biological target: T2, ΔF508-CFTR (Homo sapiens, UniProt P13569, DEL508-508); assay: CFTR cell surface levels using HRP-tagged ΔF508-CFTR expressing CFBE cells, intrinsic corrector capacity; design: % Activation: concentration or dose not given beside the values; conditions: HRP-tagged ΔF508-CFTR expressing CFBE41o- cells, compound alone (intrinsic corrector capacity), 20 hours at 33° C.; for pEC50: read-out: EC50
T2 construct: host or cells: CFBE41o-, doxycycline-inducible
Outline: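 Surface ΔF508-CFTR was measured as HRP chemiluminescence from an extracellular-loop-4 tag, expressed as percent activity between DMSO and a […] corrector control.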

ΔF508-CFTR [2] = biological target: T2, ΔF508-CFTR; assay: CFTR cell surface levels using HRP-tagged ΔF508-CFTR expressing CFBE cells, in the presence of a co-corrector; conditions: HRP-tagged ΔF508-CFTR CFBE cells, in the presence of 3 μM co-corrector; for pEC50: read-out: EC50
Outline: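 Chemiluminescent read-out of surface HRP (15 min, dark) after PBS washes. Activity is normalized as 100×(sample−DMSO)/(3 μM co-corrector alone−DMSO).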

[3] = Ieq = calculations based on the maximum current, read-out: EC50 (nM) (Ieq*)
[4] = Ieq = calculations based on the maximum current
[5] = AUC = full area under the curve upon forskolin stimulation, read-out: EC50 (nM) (AUC**)
[6] = AUC = full area under the curve upon forskolin stimulation

T2 sequence (P13569 with tags, fused parts or gaps DEL508-508): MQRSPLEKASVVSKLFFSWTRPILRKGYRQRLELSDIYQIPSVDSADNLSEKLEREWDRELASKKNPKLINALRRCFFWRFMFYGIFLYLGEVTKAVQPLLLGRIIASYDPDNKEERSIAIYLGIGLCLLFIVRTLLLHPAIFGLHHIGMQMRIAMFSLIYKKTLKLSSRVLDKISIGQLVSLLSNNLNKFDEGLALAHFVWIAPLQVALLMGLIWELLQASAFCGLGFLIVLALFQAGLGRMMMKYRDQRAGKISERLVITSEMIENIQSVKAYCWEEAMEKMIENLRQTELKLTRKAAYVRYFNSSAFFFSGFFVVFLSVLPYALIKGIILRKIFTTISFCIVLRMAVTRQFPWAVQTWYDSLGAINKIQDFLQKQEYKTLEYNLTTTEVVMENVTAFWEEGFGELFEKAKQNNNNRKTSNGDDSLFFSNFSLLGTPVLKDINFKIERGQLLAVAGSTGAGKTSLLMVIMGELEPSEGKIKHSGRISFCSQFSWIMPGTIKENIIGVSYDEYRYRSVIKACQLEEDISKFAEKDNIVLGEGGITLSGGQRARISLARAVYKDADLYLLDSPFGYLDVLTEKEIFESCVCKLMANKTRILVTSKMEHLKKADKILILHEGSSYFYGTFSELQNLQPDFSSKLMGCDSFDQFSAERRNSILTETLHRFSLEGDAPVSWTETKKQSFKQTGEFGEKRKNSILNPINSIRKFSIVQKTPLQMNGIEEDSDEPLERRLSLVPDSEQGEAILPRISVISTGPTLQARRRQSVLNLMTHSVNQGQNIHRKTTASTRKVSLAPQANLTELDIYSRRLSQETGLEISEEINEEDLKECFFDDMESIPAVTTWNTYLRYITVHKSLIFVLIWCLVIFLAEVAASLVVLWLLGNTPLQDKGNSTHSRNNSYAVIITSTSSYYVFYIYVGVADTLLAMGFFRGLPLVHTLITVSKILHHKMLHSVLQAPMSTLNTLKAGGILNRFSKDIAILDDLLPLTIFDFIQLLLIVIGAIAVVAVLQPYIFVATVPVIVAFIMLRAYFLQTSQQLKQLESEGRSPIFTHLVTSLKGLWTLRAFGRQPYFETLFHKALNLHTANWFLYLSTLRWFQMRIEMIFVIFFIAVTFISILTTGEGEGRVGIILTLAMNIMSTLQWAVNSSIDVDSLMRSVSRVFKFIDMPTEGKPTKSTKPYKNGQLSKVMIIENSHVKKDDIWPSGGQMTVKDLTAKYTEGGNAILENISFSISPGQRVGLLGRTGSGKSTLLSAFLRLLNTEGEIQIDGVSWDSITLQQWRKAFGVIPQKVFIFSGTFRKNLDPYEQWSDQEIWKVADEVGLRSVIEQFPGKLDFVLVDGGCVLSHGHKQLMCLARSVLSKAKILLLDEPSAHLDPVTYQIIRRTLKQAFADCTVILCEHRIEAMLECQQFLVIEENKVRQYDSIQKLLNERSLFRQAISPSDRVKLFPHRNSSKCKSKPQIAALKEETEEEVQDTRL
T1 sequence (P13569 with tags, fused parts or gaps DEL508-508): as above

| SMILES | EC50 (CFTR ΔF508; [3]) | % Activity at 1 μM (Ieq*) (CFTR ΔF508; [4]) | % Activation (ΔF508-CFTR [1]) | pEC50 (ΔF508-CFTR [1]) | % Activation (ΔF508-CFTR [2]) | pEC50 (ΔF508-CFTR [2]) | EC50 (CFTR ΔF508; [5]) | % Activity at 1 μM (AUC**) (CFTR ΔF508; [6]) | % Activity at 3 μM (AUC**) (CFTR ΔF508; test compound at 3 μM, AUC = full area under the curve upon forskolin stimulation) |
| --- | --- | --- | --- | --- | --- | --- | --- | --- | --- |
| CC(C)c1nn(-c2cccc(N(C)C)c2)c2nc(C(=O)NS(C)(=O)=O)cc(-c3cnc(N(C)C4CCOCC4)nc3)c12 [Compound 91, 1-[3-(dimethylamino)phenyl]-N-(methanesulfonyl)-4-{2-[methyl(oxan-4-yl)amino]pyrimidin-5-yl}-3-(propan-2-yl)-1H-pyrazolo[3,4-b]pyridine-6-carboxamide] | < 30 nM | 250% | 388.15% | 6.42 | 619.45% | 6.05 | – | – | – |
| COC(C)(C)C1CCN(c2cc(C(=O)NS(C)(=O)=O)nc3c2c(C(C)C)nn3-c2ccc(F)cc2)CC1 [Compound 221, 1-(4-fluorophenyl)-N-(methanesulfonyl)-4-[4-(2-methoxypropan-2-yl)piperidin-1-yl]-3-(propan-2-yl)-1H-pyrazolo[3,4-b]pyridine-6-carboxamide] | – | – | 322.15% | 6.38 | 492.2% | 7.11 | 40 nM | 245.9% | – |
| CCS(=O)(=O)NC(=O)c1cc(-c2ccc(N3CCOCC3)cc2)c2c(C)nn(-c3ccc(F)cc3F)c2n1 [Compound 113, 1-(2,4-difluorophenyl)-N-(ethanesulfonyl)-3-methyl-4-[4-(morpholin-4-yl)phenyl]-1H-pyrazolo[3,4-b]pyridine-6-carboxamide] | 32 nM | 310% | 262.33% | 6.33 | 455.63% | 6.63 | – | – | – |
| COCC1CCN(c2cc(C(=O)NS(=O)(=O)CCCN3CCCC3)nc3c2c(C(C)C)nn3-c2ccc(F)cc2)CC1 [Compound 291, 1-(4-fluorophenyl)-4-[4-(methoxymethyl)piperidin-1-yl]-3-(propan-2-yl)-N-[3-(pyrrolidin-1-yl)propane-1-sulfonyl]-1H-pyrazolo[3,4-b]pyridine-6-carboxamide] | – | – | 219.5% | 5.48 | 420.07% | 6.23 | – | 255.92% | – |
| COC1CCN(C2CCN(c3cc(C(=O)NS(=O)(=O)N4CC(OC)C4)nc4c3c(C3CCC3)nn4-c3ccc(F)cc3)CC2)CC1 [Compound 645, 3-cyclobutyl-1-(4-fluorophenyl)-N-(3-methoxyazetidine-1-sulfonyl)-4-(4-methoxy[1,4'-bipiperidin]-1'-yl)-1H-pyrazolo[3,4-b]pyridine-6-carboxamide] | – | – | 194.33% | 6.48 | 384.37% | 6.61 | – | – | 246.4648% |
| CN(C)S(=O)(=O)NC(=O)c1cc(N2CCC(CN3CCCC3)CC2)c2c(C3CCC3)nn(-c3ccc(F)cc3)c2n1 [Compound 589, 3-cyclobutyl-N-(dimethylsulfamoyl)-1-(4-fluorophenyl)-4-{4-[(pyrrolidin-1-yl)methyl]piperidin-1-yl}-1H-pyrazolo[3,4-b]pyridine-6-carboxamide] | – | – | 193.6% | 6.70 | 422.95% | 6.83 | – | 236.6667% | – |
| CS(=O)(=O)NC(=O)c1cc(N2CCC(OC3CCCC3)CC2)c2c(C3CCC3)nn(-c3ccccc3)c2n1 [Compound 228, 3-cyclobutyl-4-[4-(cyclopentyloxy)piperidin-1-yl]-N-(methanesulfonyl)-1-phenyl-1H-pyrazolo[3,4-b]pyridine-6-carboxamide] | – | – | 217.9% | 6.31 | 395.1% | 6.48 | 32 nM | 240% | – |
| CC(C)N(CCOc1cc(C(=O)NS(C)(=O)=O)nc2c1c(C1CCC1)nn2-c1ccccc1)C1COC1 [Compound 325, 3-cyclobutyl-N-(methanesulfonyl)-4-{2-[(oxetan-3-yl)(propan-2-yl)amino]ethoxy}-1-phenyl-1H-pyrazolo[3,4-b]pyridine-6-carboxamide] | – | – | 151.4% | 6.48 | 309.8% | 6.82 | – | 317.57% | – |
